Data reported in US20170065667A1, “METHODS FOR SYNCHRONIZATION OF ESTROUS CYCLES AND OVULATION FOR FIXED TIME ARTIFICIAL INSEMINATION IN CATTLE” (Parnell Technologies Pty Ltd., priority 2014, published 2017).

System: lactating dairy cows
Test: Experiment 2: P/AI on 11 commercial dairies, Ovsynch vs. Ovsynch + second cloprostenol sodium injection
Format: in vivo, cattle
Protocol: An experiment was performed on 11 commercial dairies in different locations in the United States: 3 dairies in Wisconsin; 3 dairies in California; 2 dairies in New York; 1 dairy in Pennsylvania; 1 dairy in New Mexico; and 1 dairy in Texas. Although overall management was quite different for each herd, each herd used the same reproductive management protocol during this experiment. Cows were randomly assigned within herd, parity, and date to one of three treatment groups at about 40 to about 46 days in milk. One of the treatment groups, Presynch-Ovsynch with heat detection, was not considered in the present analysis. Therefore only two treatment groups were utilized for all analyses, as shown in the diagram for Experiment 2 in FIG. 2.
All animals were synchronized using a GnRH composition (about 100 mcg of gonadorelin acetate per mL, GONAbreed®, Parnell Technologies Pty Ltd, Alexandria, Australia) and a PGF2α analog composition (about 250 mcg of cloprostenol sodium per mL, estroPLAN®, Parnell Technologies Pty Ltd, Alexandria, Australia).
(§1) One treatment group began at about 47 to about 53 days in milk where the cows received a first 1 mL intramuscular injection of a gonadorelin acetate composition. At about 54 to about 60 days in milk, the cows received a first 2 mL intramuscular injection of a cloprostenol sodium composition. At about 56 to about 62 days in milk (about 56 hours after the first injection of the cloprostenol sodium composition), the cows received a second 1 mL intramuscular injection of a gonadorelin acetate composition. And at about 57 to about 63 days in milk (about 16 hours after the second injection of the gonadorelin acetate composition), the animals received AI, concluding the Ovsynch phase.
as §1, with “The other treatment group” for “One treatment group”, “a first 2 mL intramuscular injection of a cloprostenol sodium composition. At about 55 to about 61 days in milk (about 24 hours after the first injection of the cloprostenol sodium composition), the cows received a second 2 mL” for “a first 2 mL”
Pregnancy diagnosis was performed with ultrasound utilizing the normal schedule for each herd (Wisconsin and Pennsylvania herds, 31-33 days after AI; California, New York, New Mexico, and Texas herds, 37-43 days after AI). Data on all treatments, AI, and pregnancy diagnosis were recorded for each individual cow in most cases (n=1,912). In some cows, data was extrapolated from other recorded data due to missing one treatment recording (n=110) or two or more treatment recordings in a cow (n=126). Pregnancy was based on a verified pregnancy diagnosis. Non-pregnancy was based on absence of pregnancy at a pregnancy diagnosis or a rebreeding to an estrus prior to pregnancy diagnosis. Statistical analyses were performed using PROC Logistic in SAS. Treatment and parity were forced into the model and factors were kept in the model if they were significant at P<0.15.

**Q.** Which results are given for `O=C(O)CCC/C=C\CC1C(O)CC(O)C1/C=C/C(O)COc1cccc(Cl)c1` (centres unmarked) [cloprostenol sodium]?
**A.** Effect of second cloprostenol sodium injection, Difference in P/AI (All Multiparous): +10.65% (P = 0.073); Effect of second cloprostenol sodium injection, Difference in P/AI (Fourth or Greater lactation): +0.09% (P = 0.517); P/AI, % (n/n) (Ovsynch (one cloprostenol sodium injection), farm CA-01): 29.4%; percentage of cows pregnant per AI (Ovsynch (one injection), All Multiparous): 32.01 (259/809) %; percentage of cows pregnant per AI (Ovsynch (one injection), Fourth or Greater lactation): 30.09 (65/216) %; percentage of cows pregnant per AI (Ovsynch (one injection), Primiparous): 37.07 (99/267) %; percentage of cows pregnant per AI (Ovsynch (one injection), Second and Third lactation): 32.71 (194/593) %; P/AI, % (n/n) (Ovsynch (one injection), Total of 11 farms): 33.3%; P/AI, % (n/n) (Ovsynch (one injection), farm CA-02): 35.3%; P/AI, % (n/n) (Ovsynch (one injection), farm CA-O3): 30.4%; P/AI, % (n/n) (Ovsynch (one injection), farm NM-04): 35.2%; P/AI, % (n/n) (Ovsynch (one injection), farm NY-05): 32.7%; P/AI, % (n/n) (Ovsynch (one injection), farm NY-06): 29.4%; P/AI, % (n/n) (Ovsynch (one injection), farm PA-07): 39.2%; P/AI, % (n/n) (Ovsynch (one injection), farm TX-08): 37.7%; P/AI, % (n/n) (Ovsynch (one injection), farm WI-09): 28.1%; P/AI, % (n/n) (Ovsynch (one injection), farm WI-10): 35.3%; P/AI, % (n/n) (Ovsynch (one injection), farm WI-11): 26.9%; P/AI, % (n/n) (Ovsynch + second cloprostenol sodium injection, farm CA-01): 36.4%; percentage of cows pregnant per AI (Ovsynch + second injection, All Multiparous): 35.42 (288/813) %; percentage of cows pregnant per AI (Ovsynch + second injection, Fourth or Greater lactation): 30.36 (68/224) %; percentage of cows pregnant per AI (Ovsynch + second injection, Primiparous): 38.22 (99/259) %; percentage of cows pregnant per AI (Ovsynch + second injection, Second and Third lactation): 37.35 (220/589) %; P/AI, % (n/n) (Ovsynch + second injection, Total of 11 farms): 36.1%; P/AI, % (n/n) (Ovsynch + second injection, farm CA-02): 39.8%; P/AI, % (n/n) (Ovsynch + second injection, farm CA-O3): 34.1%; P/AI, % (n/n) (Ovsynch + second injection, farm NM-04): 37.7%; P/AI, % (n/n) (Ovsynch + second injection, farm NY-05): 31.2%; P/AI, % (n/n) (Ovsynch + second injection, farm NY-06): 42.0%; P/AI, % (n/n) (Ovsynch + second injection, farm PA-07): 43.6%; P/AI, % (n/n) (Ovsynch + second injection, farm TX-08): 29.8%; P/AI, % (n/n) (Ovsynch + second injection, farm WI-09): 40.4%; P/AI, % (n/n) (Ovsynch + second injection, farm WI-10): 37.0%; P/AI, % (n/n) (Ovsynch + second injection, farm WI-11): 26.9%; Effect of second cloprostenol sodium injection, Difference in P/AI (Second and Third lactation): +14.19% (P = 0.047); Effect of second cloprostenol sodium injection, relative difference in P/AI (Total of 11 farms): +8.50%; Effect of second cloprostenol sodium injection, relative difference in P/AI (farm CA-01): +23.64%; Effect of second cloprostenol sodium injection, relative difference in P/AI (farm CA-02): +12.99%; Effect of second cloprostenol sodium injection, relative difference in P/AI (farm CA-O3): +12.03%; Effect of second cloprostenol sodium injection, relative difference in P/AI (farm NM-04): +7.04%; Effect of second cloprostenol sodium injection, relative difference in P/AI (farm NY-05): −4.47%; Effect of second cloprostenol sodium injection, relative difference in P/AI (farm NY-06): +43.11%; Effect of second cloprostenol sodium injection, relative difference in P/AI (farm PA-07): +10.98%; Effect of second cloprostenol sodium injection, relative difference in P/AI (farm TX-08): −20.86%; Effect of second cloprostenol sodium injection, relative difference in P/AI (farm WI-09): +43.75%; Effect of second cloprostenol sodium injection, relative difference in P/AI (farm WI-10): −4.94%; Effect of second cloprostenol sodium injection, relative difference in P/AI (farm WI-11): 0.0%; Effect of second cloprostenol sodium injection, Difference in P/AI (primiparous): +3.10% (P = 0.393)

**Q.** prostaglandin F2α [PGF] was tested. Which “Effect of second cloprostenol sodium injection, relative difference in P/AI” value (Total of 11 farms) did it give?
**A.** 8.5%

**Q.** What about the “absolute improvement in fertility due to the second PGF treatment” value (all results combined, 11 farms) of the same compound?
**A.** ~3%
